These are literature values, as cited in patent publication US20200209238A1, “OPTIMIZING DIAGNOSTICS FOR GALACTOFURANOSE CONTAINING ANTIGENS” (The Johns Hopkins University, priority 2017, published 2020).

For the series, the target named is T1, hINTL-1 (Homo sapiens, UniProt Q8WWA0).
T1 construct: from tissue; host or cells: human urine
T1 sequence (Q8WWA0 19-298): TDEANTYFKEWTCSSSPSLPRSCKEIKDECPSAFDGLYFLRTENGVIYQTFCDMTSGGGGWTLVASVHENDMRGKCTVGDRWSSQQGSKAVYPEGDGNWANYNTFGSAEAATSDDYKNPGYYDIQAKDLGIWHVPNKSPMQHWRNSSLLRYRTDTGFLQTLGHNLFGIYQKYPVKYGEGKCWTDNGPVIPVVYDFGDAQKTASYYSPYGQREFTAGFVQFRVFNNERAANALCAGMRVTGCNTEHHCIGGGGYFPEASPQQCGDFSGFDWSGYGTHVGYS

For the molecule `CC(=O)N[C@H]1[C@H]([C@H](O)[C@H](O)CO)OC(O)(C(=O)O)C[C@@H]1O` (stereo partly shown) [N-Acetylneuraminic acid (Neu5Ac), N-Acetylneuraminic acid], the “binding to hIntL-1” value is “does not bind”.
